Laboratory results: patent publication US20260250290A1 (BRISTOL-MYERS SQUIBB COMPANY, priority 2023, published 2026)
Counter-ions that a name gives are not always drawn.

biological target: T1, full length SGK1 (Homo sapiens, UniProt O00141); assay: SGK1 inhibition Assay A (Caliper LabChip electrophoretic separation of fluorescent peptide substrate and phosphorylated product); type: biochemical; conditions: Assay A; 20 μM ATP, 40 min incubation; read-out: SGK1 IC50
T1 construct: 125 μM full length SGK1 (Life Technologies Part #PR7358A); purchased Life Technologies PR7358A
T1 sequence (O00141 1-431): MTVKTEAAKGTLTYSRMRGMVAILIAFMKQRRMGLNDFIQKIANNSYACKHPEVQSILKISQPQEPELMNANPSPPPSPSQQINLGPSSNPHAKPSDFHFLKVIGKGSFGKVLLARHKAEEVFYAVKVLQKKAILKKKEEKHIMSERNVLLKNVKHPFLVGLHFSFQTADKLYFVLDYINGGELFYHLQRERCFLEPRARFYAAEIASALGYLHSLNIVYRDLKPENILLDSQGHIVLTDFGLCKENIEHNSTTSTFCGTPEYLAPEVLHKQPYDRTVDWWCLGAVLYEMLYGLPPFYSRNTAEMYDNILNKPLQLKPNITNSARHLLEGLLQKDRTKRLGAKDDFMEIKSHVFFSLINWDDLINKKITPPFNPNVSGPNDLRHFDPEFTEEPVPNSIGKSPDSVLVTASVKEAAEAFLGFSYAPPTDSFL

Compared with CC(=O)N1CC=C(c2cc(N3CCC[C@@H](NC(=O)c4ccnc(N5CC6(C5)CN(C(C)C)C6)n4)C3)c3c(N)ncnn23)C1 [Example 752, (R)-N-(1-(7-(1-acetyl-2,5-dihydro-1H-pyrrol-3-yl)-4-aminopyrrolo[2,1-f][1,2,4]triazin-5-yl)piperidin-3-yl)-2-(6-isopropyl-2,6-diazaspiro[3.3]heptan-2-yl)pyrimidine-4-carboxamide], CC(=O)N1CC=C(c2cc(N3CCC[C@@H](NC(=O)c4cccc(N5CC6(C5)CN(C(C)C)C6)n4)C3)c3c(N)ncnn23)C1 [Example 781, (R)-N-(1-(7-(1-acetyl-2,5-dihydro-1H-pyrrol-3-yl)-4-aminopyrrolo[2,1-f][1,2,4]triazin-5-yl)piperidin-3-yl)-6-(6-isopropyl-2,6-diazaspiro[3.3]heptan-2-yl)picolinamide] is 16-fold lower in IC50: 79 nM for the first, 5 nM for the second. The second is the more potent here.

Compared with CC(=O)N1CC=C(c2cc(N3CCC[C@@H](NC(=O)c4cccc(N[C@@H]5CCN(C)C5)n4)C3)c3c(N)ncnn23)C1 [Example 760, N—((R)-1-(7-(1-acetyl-2,5-dihydro-1H-pyrrol-3-yl)-4-aminopyrrolo[2,1-f][1,2,4]triazin-5-yl)piperidin-3-yl)-6-(((R)-1-methylpyrrolidin-3-yl)amino)picolinamide], CC(=O)N1CC=C(c2cc(N3CCC[C@@H](NC(=O)c4cccc(NC5CN(C)C5)n4)C3)c3c(N)ncnn23)C1 [Example 766, (R)-N-(1-(7-(1-acetyl-2,5-dihydro-1H-pyrrol-3-yl)-4-aminopyrrolo[2,1-f][1,2,4]triazin-5-yl)piperidin-3-yl)-6-((1-methylazetidin-3-yl)amino)picolinamide] is 30-fold higher in IC50: 23 nM for the first, 679 nM for the second.

First: CC(=O)N1CC=C(c2cc(N3CCC[C@@H](NC(=O)c4cccc(NCCN(C)C)n4)C3)c3c(N)ncnn23)C1 [Example 761, (R)-N-(1-(7-(1-acetyl-2,5-dihydro-1H-pyrrol-3-yl)-4-aminopyrrolo[2,1-f][1,2,4]triazin-5-yl)piperidin-3-yl)-6-((2-(dimethylamino)ethyl)amino)picolinamide]
Second: COCCNc1cccc(C(=O)N[C@@H]2CCCN(c3cc(C4=CCN(C(C)=O)C4)n4ncnc(N)c34)C2)n1 [Example 765, (R)-N-(1-(7-(1-acetyl-2,5-dihydro-1H-pyrrol-3-yl)-4-aminopyrrolo[2,1-f][1,2,4]triazin-5-yl)piperidin-3-yl)-6-((2-methoxyethyl)amino)picolinamide]
The IC50 of the first is 29-fold lower: 7 nM for the first, 200 nM for the second.

Going from CC(=O)N1CC=C(c2cc(N3CCC[C@@H](NC(=O)c4cccc(NCCN5CCCC5)n4)C3)c3c(N)ncnn23)C1 [Example 763, (R)-N-(1-(7-(1-acetyl-2,5-dihydro-1H-pyrrol-3-yl)-4-aminopyrrolo[2,1-f][1,2,4]triazin-5-yl)piperidin-3-yl)-6-((2-(pyrrolidin-1-yl)ethyl)amino)picolinamide] to CC(=O)N1CC=C(c2cc(N3CCC[C@@H](NC(=O)c4cccc(NCC5CN(C)C5)n4)C3)c3c(N)ncnn23)C1 [Example 780, (R)-N-(1-(7-(1-acetyl-2,5-dihydro-1H-pyrrol-3-yl)-4-aminopyrrolo[2,1-f][1,2,4]triazin-5-yl)piperidin-3-yl)-6-(((1-methylazetidin-3-yl)methyl)amino)picolinamide], the IC50 rises from 10 nM to 25 nM (2.5-fold). The first is the more potent here.

Going from CC(=O)N1CC=C(c2cc(N3CCC[C@@H](NC(=O)c4cccc(N5CC(S(C)(=O)=O)C5)n4)C3)c3c(N)ncnn23)C1 [Example 764, (R)-N-(1-(7-(1-acetyl-2,5-dihydro-1H-pyrrol-3-yl)-4-aminopyrrolo[2,1-f][1,2,4]triazin-5-yl)piperidin-3-yl)-6-(3-(methylsulfonyl)azetidin-1-yl)picolinamide] to CC(=O)N1CC=C(c2cc(N3CCC[C@@H](NC(=O)c4cccc(N5C[C@@H](C)N[C@@H](C)C5)n4)C3)c3c(N)ncnn23)C1 [Example 774, N-((R)-1-(7-(1-acetyl-2,5-dihydro-1H-pyrrol-3-yl)-4-aminopyrrolo[2,1-f][1,2,4]triazin-5-yl)piperidin-3-yl)-6-((3S,5R)-3,5-dimethylpiperazin-1-yl)picolinamide], the IC50 falls from 62 nM to 1 nM (62-fold). The second is the more potent here.

CC(=O)N1CC=C(c2cc(N3CCC[C@@H](NC(=O)c4cccc(NCCS(C)(=O)=O)n4)C3)c3c(N)ncnn23)C1 [Example 767, (R)-N-(1-(7-(1-acetyl-2,5-dihydro-1H-pyrrol-3-yl)-4-aminopyrrolo[2,1-f][1,2,4]triazin-5-yl)piperidin-3-yl)-6-((2-(methylsulfonyl)ethyl)amino)picolinamide] and CNc1cccc(C(=O)N[C@@H]2CCCN(c3cc(C4=CCN(C(C)=O)C4)n4ncnc(N)c34)C2)n1 [Example 778, (R)-N-(1-(7-(1-acetyl-2,5-dihydro-1H-pyrrol-3-yl)-4-aminopyrrolo[2,1-f][1,2,4]triazin-5-yl)piperidin-3-yl)-6-(methylamino)picolinamide] are within 1.5-fold of each other in IC50: 24 nM for the first, 21 nM for the second.

Going from CC(=O)N1CC=C(c2cc(N3CCC[C@@H](NC(=O)c4cccc(NC5CC(=O)N(C)C5)n4)C3)c3c(N)ncnn23)C1 (stereo partly drawn) [Example 768, N-((R)-1-(7-(1-acetyl-2,5-dihydro-1H-pyrrol-3-yl)-4-aminopyrrolo[2,1-f][1,2,4]triazin-5-yl)piperidin-3-yl)-6-((1-methyl-5-oxopyrrolidin-3-yl)amino)picolinamide] to CC(=O)N1CC=C(c2cc(N3CCC[C@@H](NC(=O)c4cccc(N5CC(=O)NC(C)C5)n4)C3)c3c(N)ncnn23)C1 (stereo partly drawn) [Example 775, N-((R)-1-(7-(1-acetyl-2,5-dihydro-1H-pyrrol-3-yl)-4-aminopyrrolo[2,1-f][1,2,4]triazin-5-yl)piperidin-3-yl)-6-(3-methyl-5-oxopiperazin-1-yl)picolinamide, 2 TFA], the IC50 falls from 46 nM to 9 nM (5.1-fold). The second is the more potent here.

Compared with CC(=O)N1CC=C(c2cc(N3CCC[C@@H](NC(=O)c4cccc(N5CCN6CCCC6C5)n4)C3)c3c(N)ncnn23)C1 (stereo partly drawn) [Example 769, N-((R)-1-(7-(1-acetyl-2,5-dihydro-1H-pyrrol-3-yl)-4-aminopyrrolo[2,1-f][1,2,4]triazin-5-yl)piperidin-3-yl)-6-(hexahydropyrrolo[1,2-a]pyrazin-2(1H)-yl)picolinamide], CC(=O)N1CC=C(c2cc(N3CCC[C@@H](NC(=O)c4cccc(N5CCN(C)C(C)C5)n4)C3)c3c(N)ncnn23)C1 (stereo partly drawn) [Example 777, N-((R)-1-(7-(1-acetyl-2,5-dihydro-1H-pyrrol-3-yl)-4-aminopyrrolo[2,1-f][1,2,4]triazin-5-yl)piperidin-3-yl)-6-(3,4-dimethylpiperazin-1-yl)picolinamide] is 22-fold higher in IC50: 2 nM for the first, 44 nM for the second. The first is the more potent here.

Compared with CC(=O)N1CC=C(c2cc(N3CCC[C@@H](NC(=O)c4cccc(N5CC[C@@H](O)C5)n4)C3)c3c(N)ncnn23)C1 [Example 770, N-((R)-1-(7-(1-acetyl-2,5-dihydro-1H-pyrrol-3-yl)-4-aminopyrrolo[2,1-f][1,2,4]triazin-5-yl)piperidin-3-yl)-6-((R)-3-hydroxypyrrolidin-1-yl)picolinamide], CC(=O)N1CC=C(c2cc(N3CCC[C@@H](NC(=O)c4cccc(N5CC[C@H](O)C5)n4)C3)c3c(N)ncnn23)C1 [Example 779, N-((R)-1-(7-(1-acetyl-2,5-dihydro-1H-pyrrol-3-yl)-4-aminopyrrolo[2,1-f][1,2,4]triazin-5-yl)piperidin-3-yl)-6-((S)-3-hydroxypyrrolidin-1-yl)picolinamide] is 4.7-fold higher in IC50: 7 nM for the first, 33 nM for the second.

Going from CC(=O)N1CC=C(c2cc(N3CCC[C@@H](NC(=O)c4cccc(N5CC(C)(O)C5)n4)C3)c3c(N)ncnn23)C1 [Example 771, (R)-N-(1-(7-(1-acetyl-2,5-dihydro-1H-pyrrol-3-yl)-4-aminopyrrolo[2,1-f][1,2,4]triazin-5-yl)piperidin-3-yl)-6-(3-hydroxy-3-methylazetidin-1-yl)picolinamide] to CC(=O)N1CC=C(c2cc(N3CCC[C@@H](NC(=O)c4cccc(N5CCC(C)(O)CC5)n4)C3)c3c(N)ncnn23)C1 [Example 772, (R)-N-(1-(7-(1-acetyl-2,5-dihydro-1H-pyrrol-3-yl)-4-aminopyrrolo[2,1-f][1,2,4]triazin-5-yl)piperidin-3-yl)-6-(4-hydroxy-4-methylpiperidin-1-yl)picolinamide], the IC50 rises from 17 nM to 72 nM (4.2-fold).

Going from CC(=O)N1CC=C(c2cc(N3CCC[C@@H](NC(=O)c4cccc(N5CCNC(C)(C)C5)n4)C3)c3c(N)ncnn23)C1 [Example 773, (R)-N-(1-(7-(1-acetyl-2,5-dihydro-1H-pyrrol-3-yl)-4-aminopyrrolo[2,1-f][1,2,4]triazin-5-yl)piperidin-3-yl)-6-(3,3-dimethylpiperazin-1-yl)picolinamide] to CC(=O)N1CC=C(c2cc(N3CCC[C@@H](NC(=O)c4cccc(N5CC6(CN(C)C6)C5)n4)C3)c3c(N)ncnn23)C1 [Example 784, (R)-N-(1-(7-(1-acetyl-2,5-dihydro-1H-pyrrol-3-yl)-4-aminopyrrolo[2,1-f][1,2,4]triazin-5-yl)piperidin-3-yl)-6-(6-methyl-2,6-diazaspiro[3.3]heptan-2-yl)picolinamide], the IC50 rises from 1 nM to 20 nM (20-fold).

With CC(=O)N1CC=C(c2cc(N3CCC[C@@H](NC(=O)c4cccc(N5CCNC(C(F)(F)F)C5)n4)C3)c3c(N)ncnn23)C1 (stereo partly drawn) [Example 776, N-((R)-1-(7-(1-acetyl-2,5-dihydro-1H-pyrrol-3-yl)-4-aminopyrrolo[2,1-f][1,2,4]triazin-5-yl)piperidin-3-yl)-6-(3-(trifluoromethyl)piperazin-1-yl)picolinamide] the IC50 was 5 nM.
